Experiments:
Type in all cases: biochemical
[1] = test system: HIV-2 IN E92A/T97A/N155H (T1); assay: strand transfer inhibition, IN from clinical isolate T1; details: clinical isolate T1, N155H with substitutions at positions 92 and 97, 200 nM IN
Procedure: (§1) Activity is expressed as a % of control without drug. Experiments were performed two times.
(§2) The HIV-2 ODN substrate sequences were: UA: 5'-[…]-3'; U5B: 5'-[…]-3'; U5B-2: 5'-[…] […]-3'.

HIV-2 IN E92Q/Y143C = biological target: T1, HIV-2 IN E92Q/Y143C (Human immunodeficiency virus type 2 subtype B, UniProt Q89928, E1260Q/I1218V/I1301V/I1372V/M1455R/N1185G/N1438H/R1202K/R1392Q/T1348V/T1383A/V1460M/Y1311C); assay: strand transfer inhibition, site-directed mutant in N1 background; details: E92Q/Y143C double mutant in N1 background; 200 nM IN
T1 construct: His-tag (pET-15b) (N); made in house; host or cells: Escherichia coli BL21-CodonPlus (DE3)-RIPL
T1 sequence (Q89928 with tags, fused parts or gaps N1185G/R1202K/I1218V/E1260Q/I1301V/Y1311C/T1348V/I1372V/T1383A/R1392Q/N1438H/M1455R/V1460M): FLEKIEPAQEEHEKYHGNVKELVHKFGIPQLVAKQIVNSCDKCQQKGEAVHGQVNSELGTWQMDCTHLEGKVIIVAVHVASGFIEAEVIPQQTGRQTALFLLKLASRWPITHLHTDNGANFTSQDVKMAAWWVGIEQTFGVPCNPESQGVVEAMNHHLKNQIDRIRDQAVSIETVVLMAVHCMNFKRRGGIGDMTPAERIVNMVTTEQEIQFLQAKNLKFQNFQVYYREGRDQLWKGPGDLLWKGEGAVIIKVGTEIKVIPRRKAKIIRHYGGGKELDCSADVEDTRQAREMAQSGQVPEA
Procedure: as §1
Primer 1: N1, N2, T1, T2, 5'-[…]-3'; N3, 5'-[…] […]-3'; T3-T7, 5'-[…]-3'. Primers 2: N1, 5'-[…]-3'; N2, 5'-[…] […]-3'; N3, 5'-[…] C-3'; T1, T2, 5'-[…]-3'; T3-T7, 5'-GGATC […] -3'.
as §2

[2] = biological target: T2, HIV-2 IN G140S/Q148R (T3) (Human immunodeficiency virus type 2 subtype A, UniProt P04584, A1212T/E1378D/G1311S/I1304V/I1351V/I1372T/M1463V/Q1319R/R1205K/R1395Q/S1188G/S1210T/T1231V/V1190I); assay: strand transfer inhibition, IN from clinical isolate T3; details: clinical isolate T3, G140S/Q148R double mutant; IC50 not reached at concentrations up to 1 μM
T2 construct: His-tag (pET-15b) (N); made in house; host or cells: Escherichia coli BL21-CodonPlus (DE3)-RIPL
T2 sequence (P04584 1172-1464 S1188G/V1190I/R1205K/S1210T/A1212T/T1231V/I1304V/G1311S/Q1319R/I1351V/I1372T/E1378D/R1395Q/M1463V): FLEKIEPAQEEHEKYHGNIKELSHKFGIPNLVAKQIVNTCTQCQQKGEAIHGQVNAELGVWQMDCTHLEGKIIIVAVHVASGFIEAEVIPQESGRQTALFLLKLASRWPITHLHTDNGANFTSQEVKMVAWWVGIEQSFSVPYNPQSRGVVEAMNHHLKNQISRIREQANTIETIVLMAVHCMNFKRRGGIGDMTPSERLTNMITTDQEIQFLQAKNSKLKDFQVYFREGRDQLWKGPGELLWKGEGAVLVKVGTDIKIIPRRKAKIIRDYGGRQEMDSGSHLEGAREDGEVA
Procedure: as §1, §2

## Cc1nnc(C(=O)NC(C)(C)c2nc(C(=O)NCc3ccc(F)cc3)c(O)c(=O)n2C)o1 [RAL, raltegravir]
[1]
  factor of increase of IC50 versus wild-type N1 IN: about 50
HIV-2 IN E92Q/Y143C
  IC50: 370 nM
[2]
  IC50: > 1000 nM

From article PMC3170264 (Retrovirology, 2011)
